# In patent US8258137B2, “Process for release of biologically active species from mesoporous oxide systems” (Katholieke Universiteit Leuven, priority 2008, dated 2012):
# Like-named read-outs stand apart in the source and are kept apart here.
# How the values were obtained:
# [1] = background values, cited from earlier work
# [2] = J. Voorspoels et al., The Veterinary Record (October 1999); cited from earlier work
# [3] = Equilibrium solubility of itraconazole in FaSSIF; type: physicochemical; settings: thermodynamic from solid; FaSSIF pH 6.5, 37° C., equilibration up to one week
# Caco-2 cell monolayer = Caco-2 cell monolayer transport; type: in vitro ADME
# Method: As receiver medium for Caco-2 transport experiments, 0.2 wt.-% TPGS (D-α-tocopherol polyethylene glycol 1000 succinate, commercially available from Eastman, Anglesey, England) in transport medium (hereinafter referred to as TM) [HBSS Hanks' Balanced Salt Solution supplemented with glucose to obtain a final concentration of 25 mM, commercially available from Sigma-Aldrich, Steinheim, Germany and Hepes-buffer (10 mM, pH 7.4, N-2-hydroxyethylpiperazine-N′-2-ethanesulfonic acid, commercially available from Lonza, Verviers, Belgium)] was used. To maintain sink conditions, TPGS was included in the medium added to the basolateral side of the Caco-2 cell monolayer.
# Caco-2 cells were purchased from Cambrex Biosciences, Walkersville, Md., United States of America. Caco-2 cells were grown in 75 cm^2 culture flasks at 37° C. in an atmosphere of 5% CO2 and 90% relative humidity. Cells were passaged every 3-4 days (at 70-80% confluence) at a split ratio of 1 to 7. Cells were negative for Mycoplasma infection.
# For transport experiments, Caco-2 cells were plated at a density of 88,500 cells/insert on Costar® Transwell membrane inserts (3 μm pore diameter, 12 mm diameter; commercially available from Corning Inc., New York). Confluence was reached within 3-4 days after seeding and the monolayers were used for the experiments 18-19 days post-seeding. Cell passages between 50 and 85 were used in the experiments. Transepithelial Electrical Resistance (hereinafter referred as TEER) values were measured with an EndOhm Voltohmmeter (commercially available from WPI, Aston, England). Only monolayers with initial TEER values higher than 200 Ω·cm^2 were used. All volumes amounted to 0.5 mL at the apical side of the monolayer and 1.5 mL at the basolateral side. After rinsing the monolayers 3 times with TM, a pre-incubation step (30 minutes) with TM (control) was performed.
# […] The samples were diluted with methanol (1:1 volume ratio) and itraconazole concentration was determined by HPLC. TEER values were measured again at the end of the experiment and were higher than 95% of the initial value.
# [4] = Oral pharmacokinetics in rabbits; type: in vivo, New Zealand White rabbits; settings: for Tmax: oral
# Method: Prior to oral drug administration, the rabbits (n=5) were fasted overnight (>12 hours). After receiving the oral dose, 3 mL of water was administered to facilitate swallowing. After 4 hours, the rabbits had free access to food and water. A wash out period of seven days was allowed between subsequent dose administrations. […] Plasma was then transferred to a fresh Eppendorf tube and frozen at −20° C. prior to analysis.
# [5] = Oral pharmacokinetics in dogs; settings: for systemic exposure after oral dosing (HPLC-UV): dogs, oral 20 mg, 4 dogs
# Method: Details of the dog's experiments were as follows: Marshall Beagle dogs (1.5-3 years of age, 7.1-10.0 kg, male) were housed according to Belgian laws and European regulations for animal experiments, and with free access to water and food. The comparative bioavailability study was performed according to a cross-over design (n=5). After administration of the capsules, 10 mL of water was given to facilitate swallowing. The evaluation of the formulation containing pure crystalline itraconazole was performed with 4 dogs. Blood samples (2.5 mL) were collected from the vena jugularis before dosing and at 0.25, 0.5, 1, 2, 3, 4, 6, 8 hours respectively after dosing. Immediately after blood collection, plasma was harvested by centrifugation at 2,500 g for 10 minutes. Plasma was then transferred to a fresh tube and frozen at −20° C. prior to analysis.
# The mobile phase consisted of a methanol/25 mM sodium acetate mixture (78/22 by volume) at pH 3.3.
# The maximal plasma concentrations (Cmax) and the time (Tmax) required to reach Cmax were determined from the individual time versus concentration profiles. Systemic exposure was determined by calculating AUC0-24h (rabbits) and AUC0-8h (dogs) using the linear trapezoidal rule. Pharmacokinetic parameters between the three formulations tested were statistically compared with the non-parametric Wilcoxon signed-rank test. The level of significance was set at p<0.03 for comparing two out of three groups.
# [6] = male, Wistar, rat, in vivo
# Method: Male Wistar rats of about 350 g were anaesthetized with a ketamin (Anesketin, commercially available from Eurovet, Heusden, Belgium)—xylazin (Xyl-M 2%, commercially available from VMD, Arendonk, Belgium) mixture (87.5 and 8.75 mg/kg respectively). The left jugular vein was cannulated with a heparinized (50 IU·mL^−1) polyethylene cannula (1.02 mm outer diameter; commercially available from Portex, Kent, United Kingdom) for blood supply from a donor rat during the perfusion experiment. A laparotomy was performed and the small intestine was exposed. A segment of the ileum (4-10 cm) was isolated by inserting two glass cannulas (4 mm o.d., 3 mm i.d.) at the proximal and distal end of the segment. Polyethylene tubing (6.5 mm o.d., 3.1 mm i.d.) was connected to the inlet cannula. The intestinal content was removed by perfusing the segment with pre-warmed TM (38° C.) at a flow rate of 3 mL/min. The perfusion pump (Minipuls3, commercially available from Gilson, Middleton, USA) was placed between the reservoir and the inlet cannula. After pre-incubation of the intestine with TM, the mesenteric vein draining the isolated part of the ileum was cannulated using the top end (1 cm) of a catheter (Insyte-W® 0.7×19 mm, commercially available from Beckton Dickinson, Salt Lake City, Utah). […]
# Plasma concentrations of itraconazole were determined by HPLC as follows. […]
solubility thermodynamic [3] [µM],total transport of itraconazole after 90 minutes (Caco-2 cell monolayer; donor: 10 μM supersaturated condition in FaSSIF (solvent shift)) [µg],total transport of itraconazole after 90 minutes (Caco-2 cell monolayer; donor: 75 μM supersaturated condition in FaSSIF (solvent shift)) [µg],total transport of itraconazole after 90 minutes (Caco-2 cell monolayer; donor: saturated itraconazole solution in FaSSIF) [µg],"Tmax ([4]; female, New Zealand White, rabbit, plasma, 8 mg) [h]","Tmax ([4]; female, New Zealand White, rabbit, plasma, 8.4 mg) [h]","AUC(0-t) ([4]; female, New Zealand White, rabbit, plasma, po, 8 mg, single oral capsule dose about 8 mg, n=5, read-out: AUC0-24 h itraconazole) [nM·h]","AUC0-24 h itraconazole ([4]; single oral capsule dose about 8 mg, n=5, listed as crystalline itraconazole) [nM·h]","AUC0-8 h itraconazole ([5]; male, Marshall Beagle, dog, in vivo, po, 20 mg) [nM·h]",Total transport after 60 minutes [6] [nmol/cm],Total transport after 60 minutes ([6]; 75 μM) [nmol/cm],Compound,water-solubility [1],water-solubility ([1]; listed as Florfenicol),oral bioavailability [2],systemic exposure after oral dosing (HPLC-UV) ([5]; listed as crystalline itraconazole),systemic exposure after oral dosing (HPLC-UV) ([5]; listed as pure crystalline itraconazole)
–,–,–,–,–,–,–,–,–,–,–,"CS(=O)(=O)c1ccc([C@@H](O)[C@@H](CF)NC(=O)C(Cl)Cl)cc1 [florfenicol, D-(threo)-1-p-methylsulfonyl phenyl-2-dichloroacetamido-3-fluoro-1-propanol]",1.3 mg/mL,about 1.3 mg/mL,good oral bioavailability,–,–
0.4,1.2,2.2,0.09,9.8,10,521,520,0 ± 0,0.03,0.50,CCC(C)n1ncn(-c2ccc(N3CCN(c4ccc(OCC5COC(Cn6cncn6)(c6ccc(Cl)cc6Cl)O5)cc4)CC3)cc2)c1=O (centres unmarked) [itraconazole],–,–,–,no systemic itraconazole could be detected,no systemic concentrations of itraconazole and its main metabolite hydroxy-itraconazole could be observed
–,–,–,–,–,–,–,–,–,–,–,CC(C)(C)c1ccc(C(O)CCCN2CCC(C(O)(c3ccccc3)c3ccccc3)CC2)cc1 (centres unmarked) [terfenadine],less than 0.01 mg/mL,–,–,–,–
